Data taken from US9334279B2, “Hepatitis C virus inhibitors” (BRISTOL-MYERS SQUIBB COMPANY, priority 2012, dated 2016).

Key:
[1] = test system: HCV GT1b(Con1) replicon; experiment: HCV replicon luciferase reporter assay, genotype 1b; type: cell-based, HCV genotype 1b; details: Hepatitis C virus, 72 h, HUH-7 cells, Renilla luciferase, 3 days incubation, read-out: LE_1b (EC50, range)
Outline: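 HUH-7 cells stably carrying a Con1 GT1b replicon with Renilla luciferase and Ser1179Ile adaptive mutation; 3.0×10^3 cells/well, DMEM 4% FCS, 0.5% DMSO, twenty-point 3-fold titration, 3 days 37 °C. Luminescence 2 h after 7.5 μM EnduRen; EC50 by four-parameter logistic fit. CC50 from multiplexed Cell Titer-Blue fluorescence (8 h).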

[2] = test system: HCV GT1a(H77) replicon; experiment: HCV replicon luciferase reporter assay, genotype 1a; type: cell-based, HCV genotype 1a; details: Hepatitis C virus, 72 h, HUH-7 cells, Renilla luciferase, 3 days incubation, read-out: LE_1a (EC50, range)
Outline: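 Huh-7 cells stably carried a GT1a(H77) Renilla luciferase replicon with NS3 P1496L and NS5A S2204I adaptive mutations. Luminescence was read after 2 h with 7.5 μM EnduRen, and EC50 came from a four-parameter logistic fit; CC50 came from multiplexed Cell Titer-Blue (8 h).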

SMILES	EC50 [1]	EC50 [2]
CC[C@@H]1O[C@H](C)CC/C=C\[C@@H]2C[C@@]2(C(=O)NS(=O)(=O)C2(C)CC2)NC(=O)[C@@H]2C[C@@H](Oc3cc(-c4ccc(C(F)(F)F)cc4)nc(-c4nccs4)c3)CN2C(=O)[C@H]1NC(=O)OC1(C(F)(F)F)CCCOC1 (stereo partly drawn) [Compound 1040, 3-(trifluoromethyl)tetrahydro-2H-pyran-3-yl ((2R,6S,7S,9R,13aS,14aR,16aS,Z)-7-ethyl-9-methyl-14a-(((1-methylcyclopropyl)sulfonyl)carbamoyl)-5,16-dioxo-2-((2-(thiazol-2-yl)-6-(4-(trifluoromethyl)phenyl)pyridin-4-yl)oxy)-2,3,5,6,7,9,10,11,13a,14,14a,15,16,16a-tetradecahydro-1H-cyclopropa[i]pyrrolo[1,2-e][1,5,8]oxadiazacyclopentadecin-6-yl)carbamate]	0.1 to 0.5 nM	0.51 to 1 nM
CC(C)Oc1ccc(-c2cc(O[C@@H]3C[C@H]4C(=O)N[C@]5(C(=O)NS(=O)(=O)C6(C)CC6)C[C@H]5/C=C\CC[C@@H](C)C[C@@H](C)[C@H](NC(=O)OC5(C(F)(F)F)CCCOC5)C(=O)N4C3)cc(-c3nccs3)n2)cc1 (stereo partly drawn) [Compound 1041, 3-(trifluoromethyl)tetrahydro-2H-pyran-3-yl ((2R,6S,7R,9R,13aS,14aR,16aS,Z)-2-((2-(4-isopropoxyphenyl)-6-(thiazol-2-yl)pyridin-4-yl)oxy)-7,9-dimethyl-14a-(((1-methylcyclopropyl)sulfonyl)carbamoyl)-5,16-dioxo-1,2,3,5,6,7,8,9,10,11,13a,14,14a,15,16,16a-hexadecahydrocyclopropa[e]pyrrolo[1,2-a][1,4]diazacyclopentadecin-6-yl)carbamate]	0.51 to 1 nM	0.51 to 1 nM
Cc1cnc(-c2cc(O[C@@H]3C[C@H]4C(=O)N[C@]5(C(=O)NS(=O)(=O)C6(C)CC6)C[C@H]5/C=C\CC[C@@H](C)C[C@@H](C)[C@H](NC(=O)OC(C)(C)C(F)(F)F)C(=O)N4C3)ccn2)s1 [Compound 1043, 1,1,1-trifluoro-2-methylpropan-2-yl ((2R,6S,7R,9R,13aS,14aR,16aS,Z)-7,9-dimethyl-14a-(((1-methylcyclopropyl)sulfonyl)carbamoyl)-2-((2-(5-methylthiazol-2-yl)pyridin-4-yl)oxy)-5,16-dioxo-1,2,3,5,6,7,8,9,10,11,13a,14,14a,15,16,16a-hexadecahydrocyclopropa[e]pyrrolo[1,2-a][1,4]diazacyclopentadecin-6-yl)carbamate]	0.1 to 0.5 nM	0.51 to 1 nM
Cc1cnc(-c2cc(O[C@@H]3C[C@H]4C(=O)N[C@]5(C(=O)NS(=O)(=O)C6(C)CC6)C[C@H]5/C=C\CC[C@@H](C)C[C@@H](C)[C@H](NC(=O)OC5(C(F)(F)F)CCCOC5)C(=O)N4C3)ccn2)s1 (stereo partly drawn) [Compound 1044, 3-(trifluoromethyl)tetrahydro-2H-pyran-3-yl ((2R,6S,7R,9R,13aS,14aR,16aS,Z)-7,9-dimethyl-14a-(((1-methylcyclopropyl)sulfonyl)carbamoyl)-2-((2-(5-methylthiazol-2-yl)pyridin-4-yl)oxy)-5,16-dioxo-1,2,3,5,6,7,8,9,10,11,13a,14,14a,15,16,16a-hexadecahydrocyclopropa[e]pyrrolo[1,2-a][1,4]diazacyclopentadecin-6-yl)carbamate]	0.51 to 1 nM	1.01 to 5 nM
Cc1csc(-c2cc(O[C@@H]3C[C@H]4C(=O)N[C@]5(C(=O)NS(=O)(=O)C6(C)CC6)C[C@H]5/C=C\CC[C@@H](C)C[C@@H](C)[C@H](NC(=O)OC(C)(C)C(F)(F)F)C(=O)N4C3)ccn2)n1 [Compound 1045, 1,1,1-trifluoro-2-methylpropan-2-yl ((2R,6S,7R,9R,13aS,14aR,16aS,Z)-7,9-dimethyl-14a-(((1-methylcyclopropyl)sulfonyl)carbamoyl)-2-((2-(4-methylthiazol-2-yl)pyridin-4-yl)oxy)-5,16-dioxo-1,2,3,5,6,7,8,9,10,11,13a,14,14a,15,16,16a-hexadecahydrocyclopropa[e]pyrrolo[1,2-a][1,4]diazacyclopentadecin-6-yl)carbamate]	0.1 to 0.5 nM	1.01 to 5 nM
CC(C)Oc1ccc(-c2cc(O[C@@H]3C[C@H]4C(=O)N[C@]5(C(=O)NS(=O)(=O)C6(C)CC6)C[C@H]5/C=C\CC[C@@H](C)C[C@@H](C)[C@H](NC(=O)OC(C)(C)C(F)(F)F)C(=O)N4C3)cc(-c3nccs3)n2)cn1 [Compound 1046, 1,1,1-trifluoro-2-methylpropan-2-yl ((2R,6S,7R,9R,13aS,14aR,16aS,Z)-2-((6′-isopropoxy-6-(thiazol-2-yl)-[2,3′-bipyridin]-4-yl)oxy)-7,9-dimethyl-14a-(((1-methylcyclopropyl)sulfonyl)carbamoyl)-5,16-dioxo-1,2,3,5,6,7,8,9,10,11,13a,14,14a,15,16,16a-hexadecahydrocyclopropa[e]pyrrolo[1,2-a][1,4]diazacyclopentadecin-6-yl)carbamate]	1.01 to 5 nM	1.01 to 5 nM
CC(C)Oc1ccc(-c2cc(O[C@@H]3C[C@H]4C(=O)N[C@]5(C(=O)NS(=O)(=O)C6(C)CC6)C[C@H]5/C=C\CC[C@@H](C)C[C@@H](C)[C@H](NC(=O)OC5(C(F)(F)F)CCCOC5)C(=O)N4C3)cc(-c3nccs3)n2)cn1 (stereo partly drawn) [Compound 1047, 3-(trifluoromethyl)tetrahydro-2H-pyran-3-yl ((2R,6S,7R,9R,13aS,14aR,16aS,Z)-2-((6′-isopropoxy-6-(thiazol-2-yl)-[2,3′-bipyridin]-4-yl)oxy)-7,9-dimethyl-14a-(((1-methylcyclopropyl)sulfonyl)carbamoyl)-5,16-dioxo-1,2,3,5,6,7,8,9,10,11,13a,14,14a,15,16,16a-hexadecahydrocyclopropa[e]pyrrolo[1,2-a][1,4]diazacyclopentadecin-6-yl)carbamate]	0.51 to 1 nM	1.01 to 5 nM
CC(C)Oc1ccc(-c2cc(O[C@@H]3C[C@H]4C(=O)N[C@]5(C(=O)NS(=O)(=O)C6(C)CC6)C[C@H]5/C=C\CC[C@@H](C)C[C@@H](C)[C@H](NC(=O)OC5(C(F)(F)F)CCCOC5)C(=O)N4C3)cc(-c3ncccn3)n2)cc1 (stereo partly drawn) [Compound 1048, 3-(trifluoromethyl)tetrahydro-2H-pyran-3-yl ((2R,6S,7R,9R,13aS,14aR,16aS,Z)-2-((2-(4-isopropoxyphenyl)-6-(pyrimidin-2-yl)pyridin-4-yl)oxy)-7,9-dimethyl-14a-(((1-methylcyclopropyl)sulfonyl)carbamoyl)-5,16-dioxo-1,2,3,5,6,7,8,9,10,11,13a,14,14a,15,16,16a-hexadecahydrocyclopropa[e]pyrrolo[1,2-a][1,4]diazacyclopentadecin-6-yl)carbamate]	1.01 to 5 nM	1.01 to 5 nM
C[C@@H]1CC/C=C\[C@@H]2C[C@@]2(C(=O)NS(=O)(=O)C2(C)CC2)NC(=O)[C@@H]2C[C@@H](Oc3cc(-c4cccnc4)nc(-c4nccs4)c3)CN2C(=O)[C@@H](NC(=O)OC2(C(F)(F)F)CCCOC2)[C@H](C)C1 (stereo partly drawn) [Compound 1049, 3-(trifluoromethyl)tetrahydro-2H-pyran-3-yl ((2R,6S,7R,9R,13aS,14aR,16aS,Z)-7,9-dimethyl-14a-(((1-methylcyclopropyl)sulfonyl)carbamoyl)-5,16-dioxo-2-((6-(thiazol-2-yl)-[2,3′-bipyridin]-4-yl)oxy)-1,2,3,5,6,7,8,9,10,11,13a,14,14a,15,16,16a-hexadecahydrocyclopropa[e]pyrrolo[1,2-a][1,4]diazacyclopentadecin-6-yl)carbamate]	1.01 to 5 nM	5.01 to 35 nM
